Test results taken from ChEMBL document CHEMBL3632561, “Probing the structural requirements of non-electrophilic naphthalene-based Nrf2 activators” (Eur J Med Chem, 2015).
Calls of active or inactive are those of the source. The calls are words filed in the database; no cut-off is given here.

Experiments:
Assay type in all cases: cell-based
[1] = target: T1, Nuclear factor erythroid 2-related factor 2 (Mus musculus) (UniProt Q60795); assay: Activation of NRF2 in mouse MLE12 cells assessed as induction of HMOX1 expression at 10 uM incubated for 6 hrs by immunoblot assay
T1 sequence (whole entry): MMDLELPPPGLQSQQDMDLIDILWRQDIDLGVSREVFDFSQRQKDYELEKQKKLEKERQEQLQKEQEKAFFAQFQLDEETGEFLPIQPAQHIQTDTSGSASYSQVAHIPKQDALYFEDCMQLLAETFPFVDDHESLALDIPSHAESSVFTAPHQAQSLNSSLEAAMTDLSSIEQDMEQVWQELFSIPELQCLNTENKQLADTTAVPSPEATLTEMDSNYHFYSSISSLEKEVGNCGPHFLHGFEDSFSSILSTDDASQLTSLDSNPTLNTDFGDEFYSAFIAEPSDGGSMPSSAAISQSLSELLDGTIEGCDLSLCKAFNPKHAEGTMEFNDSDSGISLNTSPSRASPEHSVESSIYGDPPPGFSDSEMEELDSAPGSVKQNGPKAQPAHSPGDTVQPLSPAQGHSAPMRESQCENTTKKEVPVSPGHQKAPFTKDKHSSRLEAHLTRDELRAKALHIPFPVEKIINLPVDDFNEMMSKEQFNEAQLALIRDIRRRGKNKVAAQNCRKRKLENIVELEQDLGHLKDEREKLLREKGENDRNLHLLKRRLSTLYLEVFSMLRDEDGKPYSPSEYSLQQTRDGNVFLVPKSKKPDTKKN

[2] = target: T1, Nuclear factor erythroid 2-related factor 2 (Mus musculus); assay: Activation of NRF2 in mouse MLE12 cells assessed as increase in NRF2 level at 10 uM incubated for 6 hrs by immunoblot assay
[3] = target: T1, Nuclear factor erythroid 2-related factor 2 (Mus musculus); assay: Activation of NRF2 in mouse MLE12 cells assessed as induction of NQO1 expression at 10 uM incubated for 6 hrs by immunoblot assay

| Activity [1] | Activity [2] | Activity [3] | SMILES |
| --- | --- | --- | --- |
| Active | Active |  | COc1ccc(S(=O)(=O)Nc2ccc(NS(=O)(=O)c3ccc(OC)cc3)c3ccccc23)cc1 |
| Active | Active |  | CCOC(=O)CN(c1ccc(NS(=O)(=O)c2ccc(OC)cc2)c2ccccc12)S(=O)(=O)c1ccc(OC)cc1 |
| inactive |  | inactive | COc1ccc(S(=O)(=O)Nc2ccc(N(CC(=O)O)S(=O)(=O)c3ccc(OC)cc3)c3ccccc23)cc1 |
| Active | Active |  | COc1ccc(S(=O)(=O)N(CC(=O)O)c2ccc(N(CC(=O)O)S(=O)(=O)c3ccc(OC)cc3)c3ccccc23)cc1 |
